# Laboratory results from the supplement of paper PMC9663587.
# Compound: CC(=O)c1c(C)c2cnc(Nc3ccc(N4CCN(CCOCCOCCOCCNC(=O)COc5cccc6c5C(=O)N(C5CCC(=O)NC5=O)C6=O)CC4)cn3)nc2n(C2CCCC2)c1=O [BSJ-03-123]
# Assay: increase in dead-cell fraction, 72 h; higher = more death;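 also: breast cancer cell lines in 384-well plates, stained with Hoechst plus LIVE/DEAD far red dye and imaged, cells above an LDR intensity threshold counted dead, Hoechst-negative corpses included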
# Conditions: 0.001 µM
row,Cell Line,increase in dead-cell fraction
1,SUM159,-0.0023
2,SUM185PE,-0.0024
3,SUM190PT,0.0016
4,SUM229PE,0.0053
5,SUM1315,-0.0091

# Same assay, conditions: 0.003162 µM
row,Cell Line,increase in dead-cell fraction
1,SUM159,0.0027
2,SUM185PE,-0.0357
3,SUM190PT,-0.0004
4,SUM229PE,0.0041
5,SUM1315,0.0246

# Same assay, conditions: 0.01 µM
row,Cell Line,increase in dead-cell fraction
1,SUM159,-0.003
2,SUM185PE,0.0044
3,SUM190PT,0.0082
4,SUM229PE,-0.0026
5,SUM1315,0.0376

# Same assay, conditions: 0.03162 µM
row,Cell Line,increase in dead-cell fraction
1,SUM159,0.0063
2,SUM185PE,0.0319
3,SUM190PT,0.018
4,SUM229PE,-0.0037
5,SUM1315,0.0297

# Same assay, conditions: 0.1 µM
row,Cell Line,increase in dead-cell fraction
1,SUM159,0.0055
2,SUM185PE,0.0144
3,SUM190PT,0.0114
4,SUM229PE,0.0091
5,SUM1315,0.0105

# Same assay, conditions: 0.3162 µM
row,Cell Line,increase in dead-cell fraction
1,SUM159,0.0076
2,SUM185PE,-0.0016
3,SUM190PT,0.0142
4,SUM229PE,0.0164
5,SUM1315,-0.0013

# Same assay, conditions: 1 µM
row,Cell Line,increase in dead-cell fraction
1,SUM159,0.0134
2,SUM185PE,0.0213
3,SUM190PT,0.0139
4,SUM229PE,0.007
5,SUM1315,0.033

# Same assay, conditions: 3.162 µM
row,Cell Line,increase in dead-cell fraction
1,SUM159,0.0322
2,SUM185PE,0.0264
3,SUM190PT,0.0169
4,SUM229PE,0.0152
5,SUM1315,0.03

# Same assay, conditions: 10 µM
row,Cell Line,increase in dead-cell fraction
1,SUM159,0.28
2,SUM185PE,0.0146
3,SUM190PT,0.243
4,SUM229PE,0.0241
5,SUM1315,0.0923

# Compound: C=CC(=O)Nc1ccc(C(=O)Nc2[nH]nc3c2CN(C(=O)N[C@H](CN(C)C)c2ccccc2)C3(C)C)cc1 [YKL-5-124]
# Assay: as above
# Conditions: 0.001 µM
row,Cell Line,increase in dead-cell fraction
1,SUM159,0.08
2,SUM185PE,0.0052
3,SUM190PT,0.0072
4,SUM229PE,0.0368
5,SUM1315,0.0195

# Same assay, conditions: 0.003162 µM
row,Cell Line,increase in dead-cell fraction
1,SUM159,0.19
2,SUM185PE,0.0479
3,SUM190PT,0.0099
4,SUM229PE,0.0432
5,SUM1315,0.0396

# Same assay, conditions: 0.01 µM
row,Cell Line,increase in dead-cell fraction
1,SUM159,0.247
2,SUM185PE,0.037
3,SUM190PT,0.0098
4,SUM229PE,0.0321
5,SUM1315,0.0503

# Same assay, conditions: 0.03162 µM
row,Cell Line,increase in dead-cell fraction
1,SUM159,0.231
2,SUM185PE,0.0467
3,SUM190PT,0.0132
4,SUM229PE,0.0316
5,SUM1315,0.0215

# Same assay, conditions: 0.1 µM
row,Cell Line,increase in dead-cell fraction
1,SUM159,0.221
2,SUM185PE,0.0495
3,SUM190PT,0.005
4,SUM229PE,0.0267
5,SUM1315,0.0766

# Same assay, conditions: 0.3162 µM
row,Cell Line,increase in dead-cell fraction
1,SUM159,0.273
2,SUM185PE,0.0156
3,SUM190PT,0.0169
4,SUM229PE,0.0384
5,SUM1315,0.0731

# Same assay, conditions: 1 µM
row,Cell Line,increase in dead-cell fraction
1,SUM159,0.246
2,SUM185PE,0.067
3,SUM190PT,0.0033
4,SUM229PE,0.0161
5,SUM1315,0.171

# Same assay, conditions: 3.162 µM
row,Cell Line,increase in dead-cell fraction
1,SUM159,0.332
2,SUM185PE,0.121
3,SUM190PT,0.0008
4,SUM229PE,0.0213
5,SUM1315,0.134

# Same assay, conditions: 10 µM
row,Cell Line,increase in dead-cell fraction
1,SUM159,0.436
2,SUM185PE,0.148
3,SUM190PT,0.244
4,SUM229PE,0.0246
5,SUM1315,0.364

# Compound: CCc1cnn2c(NCc3ccc[n+]([O-])c3)cc(N3CCCC[C@H]3CCO)nc12
# Assay: as above
# Conditions: 0.0001 µM
row,Cell Line,increase in dead-cell fraction
1,SUM159,-0.0009
2,SUM185PE,-0.003
3,SUM190PT,0.0034
4,SUM229PE,-0.0001
5,SUM1315,-0.0013

# Same assay, conditions: 0.0003162 µM
row,Cell Line,increase in dead-cell fraction
1,SUM159,-0.0008
2,SUM185PE,0.0089
3,SUM190PT,0.0047
4,SUM229PE,-0.0086
5,SUM1315,-0.0006

# Same assay, conditions: 0.001 µM
row,Cell Line,increase in dead-cell fraction
1,SUM159,-0.0012
2,SUM185PE,-0.0107
3,SUM190PT,-0.0024
4,SUM229PE,0.0057
5,SUM1315,0.0062

# Same assay, conditions: 0.003162 µM
row,Cell Line,increase in dead-cell fraction
1,SUM159,0.0013
2,SUM185PE,0.0052
3,SUM190PT,-0.0088
4,SUM229PE,-0.0015
5,SUM1315,0.0147

# Same assay, conditions: 0.01 µM
row,Cell Line,increase in dead-cell fraction
1,SUM159,0.0076
2,SUM185PE,0.0137
3,SUM190PT,-0.0098
4,SUM229PE,0.0106
5,SUM1315,0.0232

# Same assay, conditions: 0.03162 µM
row,Cell Line,increase in dead-cell fraction
1,SUM159,0.299
2,SUM185PE,0.0687
3,SUM190PT,0.201
4,SUM229PE,0.0583
5,SUM1315,0.578

# Same assay, conditions: 0.1 µM
row,Cell Line,increase in dead-cell fraction
1,SUM159,0.226
2,SUM185PE,0.0528
3,SUM190PT,0.449
4,SUM229PE,0.0925
5,SUM1315,0.63

# Same assay, conditions: 0.3162 µM
row,Cell Line,increase in dead-cell fraction
1,SUM159,0.238
2,SUM185PE,0.0636
3,SUM190PT,0.477
4,SUM229PE,0.0682
5,SUM1315,0.64

# Same assay, conditions: 1 µM
row,Cell Line,increase in dead-cell fraction
1,SUM159,0.246
2,SUM185PE,0.0458
3,SUM190PT,0.49
4,SUM229PE,0.0926
5,SUM1315,0.599
